Reference: patent US7300917B2, “Remedy for chronic disease” (Ono Pharmaceuticals Co., Ltd., priority 2002, dated 2007)
Entries after “also recorded” stand apart in the source; their conditions may differ.

Columns and labels:
Format in all cases: cell-based
human EDG-2 = target: T1, human EDG-2 (Homo sapiens, UniProt Q92633); test: Evaluation of EDG-2 antagonistic activity by monitoring the change of intracellular calcium ion concentration; settings: CHO cells overexpressing human EDG-2; inhibition of intracellular calcium increase by LPA (100 nM); Fura2
T1 construct: expressed in transfected cells; host or cells: Chinese hamster ovary (CHO) cells
Experimental: Chinese hamster ovary (CHO) cells which overexpressed human EDG-2 gene were cultured in Ham's F12 medium (GIBCO BRL) containing 10% FBS (fetal bovine serum), penicillin/streptomycin and blasticidin (5 μg/ml). Thus cultured cells were incubated in Fura2 (5 μM)-AM solution [Ham's F12 medium containing FBS (10%), HEPES buffer (20 mM, pH 7.4) and probenecid (2.5 mM)]. Next, it was washed with Hanks solution containing HEPES buffer (20 mM, pH 7.4) and probenecid (2.5 mM) once, and immersed into the Hanks solution. Plates were set in fluorescent drug screening system and intracellular calcium ion concentration was measured for 30 seconds with no stimulation. Five minutes after adding thereto a compound to be tested (final concentration: 1 nM to 10 μM, in dimethylsulfoxide (DMSO) solution), the increase of intracellular calcium ion concentrations before and after the addition of LPA (excitation wave length: […]; fluorescent wave length: 500 nm) were measured every 3 seconds. 1-oleoyl (18:1)-LPA (Sigma) or 1-linolenoyl (18:3)-LPA was used as LPA. 1-linolenoyl (18:3)-LPA was synthesized and purified by either of the following two methods. […]

[1] = test system: mouse precursor fat cells (3T3-L1); test: Inhibition by an EDG-2 antagonist of LPA-dependent proliferation of mouse precursor fat cells (BrdU uptake); settings: compound 0.001 μM-10 μM, FIG. 9-10
Experimental: Proliferating activity of mouse precursor fat cells by LPA was measured by BrdU uptaking activity of the cells (3T3-L1). In a medium containing serum (DMEM/10% FBS (50 μg/mL); gentamicin (50 ng/mL); amphotericin B) the cells were suspended and the suspension was sowed in a concentration of 1×10^4 cells/well in a 96-well plate and it was cultured for 24 hours, and then it was washed with Hanks solution (150 μL) twice and the medium was exchanged with serum-free medium (DMEM (50 μg/mL); gentamicin (50 ng/mL); amphotericin B) and it was cultured for another 24 hours. Thereto was added the compound (b) or compound (c) in a final concentration of 0.001 μM-10 μM and 20 hours later thereto was added BrdU and 24 hours later, the uptaking of BrdU was measured.

[2] = test system: human synovial cells (HFLS); test: Inhibition by an EDG-2 antagonist of LPA-dependent proliferation of human synovial cells (BrdU uptake); settings: LPA 3 μM, compound 0.001 μM-10 μM, FIG. 11-12
Experimental: Proliferating activity of human synovial cells by LPA was measured by BrdU uptaking activity of the cells (HFLS CELL APPLICATION Inc.). In a medium containing serum (Synoviocyte Basal Medium/Synoviocyte Growth Supplement) the cells were suspended and they were sowed in a collagen-coated 96-well plate in a concentration of 1×10^4 cells/well and 24 hours after it was washed with Hanks solution (150 μl) twice and the medium was exchanged with serum-free medium (Synoviocyte Basal Medium) in a volume of 100 μL/well and it was cultured for 24 hours. The compound (b) or compound (c) (each in a concentration of 0.001 μM-10 μM) was simultaneously added with LPA (in a concentration of 3 μM) and 18 hours after, thereto was added BrdU and the uptaking of BrdU was measured.

[3] = test system: human airway smooth muscle cells; test: Inhibition by an EDG-2 antagonist of LPA-dependent proliferation of human airway smooth muscle cells (BrdU uptake); settings: LPA 3 μM; test compound 1 nM-10 μM; 6 hours; FIG. 6-7
Experimental: BSMC was sowed to an MEM-α medium (GIBCO) containing 10% FBS (fetal bovine serum), gentamicin (50 μg/ml), amfortercin B (50 ng/ml), human bFGF and human insulin in a concentration of 1×10^4 cells/well in a 96-well plate and the mixture was cultured for 24 hours. Afterwards, it was washed with Hanks solution twice, and the medium was exchanged with a serum-free medium (an MEM-α containing gentamicin (50 μg/ml) and amphortecin B (50 ng/ml)) and the mixture was cultured for another 24 hours. Thereto was added LPA (final concentration: 3 nM-10 μM) and simultaneously was added BrdU and the mixture was cultured for another 6 hours. The same amount of physiological saline was added as a control in place of LPA.
Uptaking of BrdU was measured by using cell proliferation ELISA kit (Amersham Inc.). Specifically, the cells were treated with BrdU and the cultured serum was discarded and to each well was added a cell anchorage/DNA denaturation solution (150 μl) and the mixture was allowed to stand for 30 minutes. […] Thereto was added 2N solution of sulfuric acid (25 μL) and the absorbance was measured at 450 nm by microplate reader SPECTRAMAXPRO.
By the method shown in example 4 BSMC was cultured and the test compound (final concentration: 1 nM-10 μM) was added just before adding LPA. […] After adding LPA, BrdU was added and it was cultured for 6 hours and the uptaking activity of BrdU was measured.

[4] = test system: human prostate stroma cells; test: Inhibition by an EDG-2 antagonist of LPA-dependent proliferation of human prostate stroma cells (BrdU uptake); settings: LPA 1 μM; test compound 1 nM to 10 μM; 24 hours; FIG. 2-4
Experimental: To an MEM-α medium containing 10% FBS (fetal bovine serum), gentamicin (50 μg/ml), amphortercin B (50 ng/mL) and human bFGF and human insulin)(GIBCO Inc.) was added PrSC 5685 in a concentration of 1×10^4 cells/well in a 96-well plate and the mixture was cultured for 24 hours. Afterwards, it was washed with Hanks solution twice and the medium was exchanged with a serum-free medium (MEM-α containing gentamicin (50 μg/ml) and amphotercin B (50 ng/ml)) and cultured for another 24 hours. Thereto was added LPA (final concentration: 1 nM-10 μM) and at the same time was added BrdU and the mixture was cultured for 24 hours. The same amount of physiological saline was added in place of LPA as a control.
Uptaking of BrdU was measured by using cell proliferation ELISA kit (Amersham Inc.). Specifically, the cells were treated with BrdU and the cultured serum was discarded and to each well was added a cell anchorage/DNA denaturation solution (150 μl) and the mixture was allowed to stand for 30 minutes. The cell anchorage/DNA denaturation solution was removed and to the mixture was added Blocking buffer (150 μl) and the mixture was allowed to stand for another 30 minutes. Next the Blocking buffer was removed and thereto was added anti-BrdU antibody solution (100 μL) labeled with peroxidase and the mixture was allowed to stand for 30 minutes. Next the antibody solution was removed and the mixture was washed with Wash buffer (PBS(−); 150 μl) three times, moisture was removed enough by tapping and thereto was added a solution of a reaction substance (3,3′,5,5′,-tetramethylbenzidine, TMB 15% solution in DMSO; 100 μL). Thereto was added 2N solution of sulfuric acid (25 μL) and the absorbance was measured at 450 nm by microplate reader SPECTRAMAXPRO.
Human-prostate stroma cells were cultured by the method described in example 2, just before adding LPA the test compound (final concentration: 1 nM to 10 μM) were added. […] After adding LPA was added BrdU and it was cultured for another 24 hours and the uptaking activity of BrdU was measured.

T1 sequence (Q92633 whole entry): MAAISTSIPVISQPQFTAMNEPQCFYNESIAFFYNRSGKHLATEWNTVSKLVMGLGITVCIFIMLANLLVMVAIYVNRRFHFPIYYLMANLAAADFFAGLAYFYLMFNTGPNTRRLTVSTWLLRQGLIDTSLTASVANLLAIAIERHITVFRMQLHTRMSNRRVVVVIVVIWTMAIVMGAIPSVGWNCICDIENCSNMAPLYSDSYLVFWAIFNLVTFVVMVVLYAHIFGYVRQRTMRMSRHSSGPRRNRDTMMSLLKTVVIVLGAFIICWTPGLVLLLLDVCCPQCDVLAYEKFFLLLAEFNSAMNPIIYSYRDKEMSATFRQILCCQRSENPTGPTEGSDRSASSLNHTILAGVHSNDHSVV

COC(=O)CCSCc1ccc(-c2onc(C)c2NC(=O)OC(C)c2ccccc2Cl)cc1 (stereo not drawn) [compound (b), methyl 3-({4-[4-({[1-(2-chlorophenyl)ethoxy]carbonyl}amino)-3-methyl-5-isoxazolyl]benzyl}sulfanyl)propanoate, reference compound]
IC50 (human EDG-2): 1500 nM
inhibition of proliferation of mouse precursor fat cells by LPA stimulation (BrdU uptaking activity) [1]: inhibits the proliferation effect of normal human precursor fat cells induced by LPA depending on the concentration; also recorded: inhibited the proliferation of mouse precursor fat cells by LPA stimulation depending on the concentration
inhibition of proliferation of human synovial cells by stimulation of LPA (BrdU uptaking activity) [2]: inhibits the proliferation effect of normal human precursor fat cells depending on the concentration; also recorded: inhibited the proliferation of human synovial cells by stimulation of LPA
inhibition of proliferation of human airway smooth muscle cells by LPA stimulation (BrdU uptaking activity) [3]: inhibits the proliferation effect of normal human airway smooth muscle cells induced by LPA depending on the concentration
inhibition of proliferation of human prostate stroma cells by LPA stimulation (BrdU uptaking activity) [4]: suppresses the proliferation effect of normal human prostate stroma cells by LPA, depending on the concentration

COc1cc(C(=O)N(CCCc2ccccc2)Cc2ccc(-c3ccccc3CC(=O)O)cc2)cc(OC)c1OC [compound (c), (4′-{[(3-phenylpropyl)(3,4,5-trimethoxybenzoyl)amino]methyl}-2-biphenylyl)acetic acid]
IC50 (human EDG-2): 190 nM
inhibition of proliferation of mouse precursor fat cells by LPA stimulation (BrdU uptaking activity) [1]: inhibits the proliferation effect of normal human precursor fat cells induced by LPA depending on the concentration; also recorded: inhibited the proliferation of mouse precursor fat cells by LPA stimulation depending on the concentration
inhibition of proliferation of human synovial cells by stimulation of LPA (BrdU uptaking activity) [2]: inhibits the proliferation effect of normal human synovial membrane depending on the concentration
inhibition of proliferation of human prostate stroma cells by LPA stimulation (BrdU uptaking activity) [4]: suppresses the proliferation effect of normal human prostate stroma cells by LPA, depending on the concentration

COc1ccc(OC)c(CCN(CCC(=O)O)C(=O)c2ccccc2-c2ccccc2C(=O)NCc2cccnc2)c1.Cl [compound (a), 3-(N-((2-(2-((pyridin-3-ylmethylamino)carbonyl)phenyl)phenyl)carbonyl)-N-(2-(2,5-dimethoxyphenyl)ethyl)amino)propanoic acid hydrochloride]
inhibition of proliferation of human synovial cells by stimulation of LPA (BrdU uptaking activity) [2]: inhibited the proliferation of human synovial cells by stimulation of LPA
inhibition of proliferation of human airway smooth muscle cells by LPA stimulation (BrdU uptaking activity) [3]: suppresses the proliferation effect of normal human airway smooth muscle cells by LPA, depending on the concentration
inhibition of proliferation of human prostate stroma cells by LPA stimulation (BrdU uptaking activity) [4]: suppresses the proliferation effect of normal human prostate stroma cells by LPA, depending on the concentration
